Tests used:
GSPT1 = molecular target: T1, GSPT1 (Homo sapiens, UniProt P15170+Q96SW2); assay: Western-blot assay, substrate protein in hPBMCs; format: cell-based; conditions: hPBMC cells, 24 hours, tested at 50 nM and 500 nM, table does not say which
T1 construct: endogenous in cells; host or cells: human PBMCs (Milecell Biotechnologies)
How it was run: (§1)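 Cellular protein levels after a 24 h degrader treatment of human PBMCs were assessed by Western blot densitometry relative to an internal control. Results are expressed as % remaining, % degraded, or DC50 versus DMSO-treated cells.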

IKZF2 = molecular target: T2, IKZF2 (Homo sapiens, UniProt Q96SW2+Q9UKS7); assay: Western-blot assay, substrate protein in hPBMCs; format: cell-based; conditions: hPBMC cells, 24 hours, tested at 50 nM and 500 nM, table does not say which
T2 construct: endogenous in cells; host or cells: human PBMCs (Milecell Biotechnologies)
How it was run: as §1

IKZF1 = molecular target: T3, IKZF1 (Homo sapiens, UniProt Q13422+Q96SW2); assay: Western-blot assay, substrate protein in hPBMCs; format: cell-based; conditions: hPBMC cells, 24 hours, tested at 50 nM and 500 nM, table does not say which
T3 construct: endogenous in cells; host or cells: human PBMCs (Milecell Biotechnologies)
How it was run: (§2)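 hPBMCs (1×10^6 cells/mL) exposed 24 h to compound at 50 nM and 500 nM, lysed, and probed by Western blot. Band grayscale normalized to internal control gives % protein remaining versus DMSO; DC50 from concentration-response fit at half DMSO band intensity.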

[1] = molecular target: T4, human Cereblon WT GST-tagged protein (Homo sapiens, UniProt Q96SW2); assay: CRBN-binding affinity, HTRF (CEREBLON BINDING kit); conditions: displacement of Thalidomide-Re reagent, 3 hours at room temperature
T4 construct: purchased CISBIO 64BDCRBNPEH
How it was run: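 Compounds displace a thalidomide-Re tracer from GST-tagged human Cereblon WT, detected with an Eu-labelled anti-GST antibody by time-resolved fluorescence. Signal at 620 nm was normalised against solvent and blank controls.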

Kasumi-1 = assay: Half inhibitory concentration (IC50) against tumor cells, Cell Counting Kit-8; format: cell-based; conditions: Homo sapiens, CCK-8, 96 h treatment, read-out: inhibitory activity (IC50, nM) against tumor cells proliferation
Procedure: (§3) The tumor cells used herein were cultured in a cell culture medium listed in table A at 37° C. in an incubator with 5% CO2.
(§4) After the cells were treated with the compounds of the present disclosure for a period of time, the cell viability detection reagent was added to the culture medium for cell viability assessment according to the instructions provided with the CCK-8 kit. […] The growth inhibition of the compounds of the present disclosure on cells was plotted by Prism Graphpad software, and the IC50 values of the compounds of the present disclosure were calculated therefrom.

CCRF-CEM = assay: as above; format: cell-based; conditions: Homo sapiens, CCK-8, 96 h treatment, read-out: inhibitory activity (IC50, nM) against tumor cells proliferation
Procedure: as §3, §4

MV-4-11 = assay: as above; format: cell-based; conditions: Homo sapiens, MV4-11, CCK-8, 96 h treatment, read-out: inhibitory activity (IC50, nM) against tumor cells proliferation
Procedure: as §3, §4

CK1α = molecular target: T5, CK1α (Homo sapiens, UniProt P48729+Q96SW2); assay: Western-blot assay, substrate protein in hPBMCs; format: cell-based; conditions: hPBMC cells, 24 hours, tested at 50 nM and 500 nM, table does not say which
T5 construct: endogenous in cells; host or cells: human PBMCs (Milecell Biotechnologies)
How it was run: as §1

Wee1 = molecular target: T6, Wee1 (Homo sapiens, UniProt P30291+Q96SW2); assay: Western-blot assay, substrate protein in hPBMCs; format: cell-based; conditions: hPBMC cells, 24 hours, tested at 50 nM and 500 nM, table does not say which
T6 construct: endogenous in cells; host or cells: human PBMCs (Milecell Biotechnologies)
How it was run: as §1

IKZF3 = molecular target: T7, IKZF3 (Homo sapiens, UniProt Q96SW2+Q9UKT9); assay: Western-blot assay, substrate protein in hPBMCs; format: cell-based; conditions: hPBMC cells, 24 hours, tested at 50 nM and 500 nM, table does not say which
T7 construct: endogenous in cells; host or cells: human PBMCs (Milecell Biotechnologies)
How it was run: as §2

MM.1S = assay: Half inhibitory concentration (IC50) against tumor cells, Cell Counting Kit-8; format: cell-based; conditions: Homo sapiens, MM1.S, CCK-8, 96 h treatment, read-out: inhibitory activity (IC50, nM) against tumor cells proliferation
Procedure: as §3, §4

CAL-62 = assay: as above; format: cell-based; conditions: Homo sapiens, CCK-8, 96 h treatment, read-out: inhibitory activity (IC50, nM) against tumor cells proliferation
Procedure: as §3, §4

MM.1R = assay: as above; format: cell-based; conditions: Homo sapiens, CCK-8, 96 h treatment, read-out: inhibitory activity (IC50, nM) against tumor cells proliferation
Procedure: as §3, §4

THP-1 = assay: as above; format: cell-based; conditions: Homo sapiens, CCK-8, 96 h treatment, read-out: inhibitory activity (IC50, nM) against tumor cells proliferation
Procedure: as §3, §4

MDA-MB-231 = assay: as above; format: cell-based; conditions: Homo sapiens, CCK-8, 96 h treatment, read-out: inhibitory activity (IC50, nM) against tumor cells proliferation
Procedure: as §3, §4

Daudi = assay: as above; format: cell-based; conditions: Homo sapiens, CCK-8, 96 h treatment, read-out: inhibitory activity (IC50, nM) against tumor cells proliferation
Procedure: as §3, §4

JEKO-1 = assay: as above; format: cell-based; conditions: Homo sapiens, CCK-8, 96 h treatment, read-out: inhibitory activity (IC50, nM) against tumor cells proliferation
Procedure: as §3, §4

T7 sequence (Q9UKT9 whole entry): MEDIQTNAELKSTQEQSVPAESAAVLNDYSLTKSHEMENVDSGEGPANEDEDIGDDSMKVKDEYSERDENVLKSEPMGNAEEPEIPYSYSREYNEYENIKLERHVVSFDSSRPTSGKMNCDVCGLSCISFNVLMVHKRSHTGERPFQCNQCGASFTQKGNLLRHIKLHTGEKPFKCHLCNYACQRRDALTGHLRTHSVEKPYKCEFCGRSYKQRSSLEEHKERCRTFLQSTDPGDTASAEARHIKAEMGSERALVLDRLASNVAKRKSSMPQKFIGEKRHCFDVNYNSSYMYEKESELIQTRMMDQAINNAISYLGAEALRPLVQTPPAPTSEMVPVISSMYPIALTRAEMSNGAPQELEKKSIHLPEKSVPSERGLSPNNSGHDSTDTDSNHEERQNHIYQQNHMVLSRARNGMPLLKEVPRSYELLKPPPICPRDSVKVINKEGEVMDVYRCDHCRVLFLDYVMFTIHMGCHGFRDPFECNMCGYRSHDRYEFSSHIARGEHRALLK
T7 sequence (Q96SW2 whole entry): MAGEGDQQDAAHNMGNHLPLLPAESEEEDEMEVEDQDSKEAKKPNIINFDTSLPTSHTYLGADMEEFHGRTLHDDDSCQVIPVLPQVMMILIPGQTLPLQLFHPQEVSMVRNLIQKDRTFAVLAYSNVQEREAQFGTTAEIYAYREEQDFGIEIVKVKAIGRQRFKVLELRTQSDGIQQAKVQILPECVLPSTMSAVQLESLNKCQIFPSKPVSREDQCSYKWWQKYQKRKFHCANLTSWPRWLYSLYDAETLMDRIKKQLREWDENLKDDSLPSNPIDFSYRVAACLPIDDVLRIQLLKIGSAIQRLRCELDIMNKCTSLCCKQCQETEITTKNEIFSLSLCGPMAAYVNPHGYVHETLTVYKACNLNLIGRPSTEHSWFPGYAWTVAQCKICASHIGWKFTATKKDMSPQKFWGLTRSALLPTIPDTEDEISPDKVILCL
T7 sequence (Q16531 whole entry partner): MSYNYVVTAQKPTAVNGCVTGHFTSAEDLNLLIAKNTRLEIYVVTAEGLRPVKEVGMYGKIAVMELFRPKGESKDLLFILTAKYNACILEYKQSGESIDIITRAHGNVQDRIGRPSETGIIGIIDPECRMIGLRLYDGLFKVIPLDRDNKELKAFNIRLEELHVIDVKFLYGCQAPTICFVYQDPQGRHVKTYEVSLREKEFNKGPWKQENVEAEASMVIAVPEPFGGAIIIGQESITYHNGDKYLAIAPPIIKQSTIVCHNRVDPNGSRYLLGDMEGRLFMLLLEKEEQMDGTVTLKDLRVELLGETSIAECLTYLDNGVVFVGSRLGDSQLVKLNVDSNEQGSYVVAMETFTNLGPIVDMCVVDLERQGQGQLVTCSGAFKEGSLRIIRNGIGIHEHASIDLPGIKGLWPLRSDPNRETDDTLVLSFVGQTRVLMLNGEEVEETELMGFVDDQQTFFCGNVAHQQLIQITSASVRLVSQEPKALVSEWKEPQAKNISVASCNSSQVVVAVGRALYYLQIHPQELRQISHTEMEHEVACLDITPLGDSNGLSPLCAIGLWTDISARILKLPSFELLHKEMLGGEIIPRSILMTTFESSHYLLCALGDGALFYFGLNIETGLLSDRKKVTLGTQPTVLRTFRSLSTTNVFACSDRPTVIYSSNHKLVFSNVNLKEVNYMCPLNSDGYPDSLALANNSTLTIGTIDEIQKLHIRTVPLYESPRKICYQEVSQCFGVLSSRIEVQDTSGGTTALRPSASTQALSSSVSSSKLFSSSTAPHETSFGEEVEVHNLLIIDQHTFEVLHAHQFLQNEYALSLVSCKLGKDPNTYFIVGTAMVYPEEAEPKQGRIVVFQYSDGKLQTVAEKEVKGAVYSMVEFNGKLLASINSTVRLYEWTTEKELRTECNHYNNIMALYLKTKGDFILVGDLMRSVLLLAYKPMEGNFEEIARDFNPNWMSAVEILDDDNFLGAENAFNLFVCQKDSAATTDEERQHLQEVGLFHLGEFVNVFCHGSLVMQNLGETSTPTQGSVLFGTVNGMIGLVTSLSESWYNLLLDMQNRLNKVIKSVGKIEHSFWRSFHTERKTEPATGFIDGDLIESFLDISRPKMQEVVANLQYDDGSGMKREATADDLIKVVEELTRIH
T4 sequence (Q96SW2 whole entry): as the sequence (Q96SW2 whole entry) above
T5 sequence (P48729 whole entry): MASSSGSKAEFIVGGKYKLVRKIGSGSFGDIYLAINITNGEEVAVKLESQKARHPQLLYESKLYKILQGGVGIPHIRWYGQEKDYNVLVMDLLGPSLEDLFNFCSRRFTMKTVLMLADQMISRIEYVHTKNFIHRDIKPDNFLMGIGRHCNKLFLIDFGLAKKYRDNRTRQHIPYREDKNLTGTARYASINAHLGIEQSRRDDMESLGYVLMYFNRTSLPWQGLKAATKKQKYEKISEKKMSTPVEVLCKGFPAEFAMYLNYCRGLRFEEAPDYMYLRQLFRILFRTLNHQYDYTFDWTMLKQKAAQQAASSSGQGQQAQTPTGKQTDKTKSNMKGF
T5 sequence (Q96SW2 whole entry): as the sequence (Q96SW2 whole entry) above
T5 sequence (Q16531 whole entry partner): as the sequence (Q16531 whole entry partner) above
T3 sequence (Q13422 whole entry): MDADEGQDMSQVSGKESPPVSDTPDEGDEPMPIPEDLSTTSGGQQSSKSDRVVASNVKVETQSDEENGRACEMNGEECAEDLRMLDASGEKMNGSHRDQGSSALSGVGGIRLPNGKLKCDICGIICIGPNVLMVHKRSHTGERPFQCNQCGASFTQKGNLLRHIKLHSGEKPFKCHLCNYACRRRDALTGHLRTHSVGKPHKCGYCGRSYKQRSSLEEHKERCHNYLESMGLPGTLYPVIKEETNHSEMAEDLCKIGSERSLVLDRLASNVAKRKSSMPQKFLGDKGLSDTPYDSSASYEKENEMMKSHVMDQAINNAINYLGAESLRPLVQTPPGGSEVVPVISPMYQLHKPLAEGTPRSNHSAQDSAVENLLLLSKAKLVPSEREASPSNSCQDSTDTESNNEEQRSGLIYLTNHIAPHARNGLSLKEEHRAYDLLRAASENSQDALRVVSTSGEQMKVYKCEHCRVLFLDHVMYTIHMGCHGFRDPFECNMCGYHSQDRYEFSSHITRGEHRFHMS
T3 sequence (Q96SW2 whole entry): as the sequence (Q96SW2 whole entry) above
T3 sequence (Q16531 whole entry partner): as the sequence (Q16531 whole entry partner) above
T6 sequence (P30291 whole entry): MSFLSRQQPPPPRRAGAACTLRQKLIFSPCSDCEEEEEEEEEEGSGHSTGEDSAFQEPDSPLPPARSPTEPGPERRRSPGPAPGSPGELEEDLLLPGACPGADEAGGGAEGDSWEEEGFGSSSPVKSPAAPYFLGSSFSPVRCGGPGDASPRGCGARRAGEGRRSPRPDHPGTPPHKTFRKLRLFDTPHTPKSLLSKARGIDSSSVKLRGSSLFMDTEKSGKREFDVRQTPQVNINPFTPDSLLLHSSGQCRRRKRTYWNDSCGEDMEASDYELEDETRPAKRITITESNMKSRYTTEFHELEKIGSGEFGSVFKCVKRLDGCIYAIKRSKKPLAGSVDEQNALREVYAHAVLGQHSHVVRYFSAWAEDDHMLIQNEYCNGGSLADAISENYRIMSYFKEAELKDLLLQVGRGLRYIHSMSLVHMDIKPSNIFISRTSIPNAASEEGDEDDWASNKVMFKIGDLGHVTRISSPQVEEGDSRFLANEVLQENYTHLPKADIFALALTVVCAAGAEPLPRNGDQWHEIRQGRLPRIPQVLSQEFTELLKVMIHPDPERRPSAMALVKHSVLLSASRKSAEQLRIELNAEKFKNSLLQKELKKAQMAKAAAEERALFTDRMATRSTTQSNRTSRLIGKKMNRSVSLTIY
T6 sequence (Q96SW2 whole entry): as the sequence (Q96SW2 whole entry) above
T6 sequence (Q16531 whole entry partner): as the sequence (Q16531 whole entry partner) above
T2 sequence (Q9UKS7 whole entry): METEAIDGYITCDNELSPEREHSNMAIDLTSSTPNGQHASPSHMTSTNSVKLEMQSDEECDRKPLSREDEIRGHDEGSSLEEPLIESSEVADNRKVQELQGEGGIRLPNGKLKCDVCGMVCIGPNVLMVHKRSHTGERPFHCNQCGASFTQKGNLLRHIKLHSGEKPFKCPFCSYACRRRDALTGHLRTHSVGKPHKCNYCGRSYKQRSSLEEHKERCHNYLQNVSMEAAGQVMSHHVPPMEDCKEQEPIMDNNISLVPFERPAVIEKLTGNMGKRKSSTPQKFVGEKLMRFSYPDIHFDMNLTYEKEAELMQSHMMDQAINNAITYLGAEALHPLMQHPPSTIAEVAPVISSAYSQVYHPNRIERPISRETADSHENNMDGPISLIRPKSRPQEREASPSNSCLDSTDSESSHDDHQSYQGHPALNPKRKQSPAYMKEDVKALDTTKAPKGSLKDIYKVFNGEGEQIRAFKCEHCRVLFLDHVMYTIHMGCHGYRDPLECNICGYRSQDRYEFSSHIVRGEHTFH
T2 sequence (Q96SW2 whole entry): as the sequence (Q96SW2 whole entry) above
T2 sequence (Q16531 whole entry partner): as the sequence (Q16531 whole entry partner) above

IC50 [1] [nM]	IC50 (Kasumi-1) [nM]	IC50 (CCRF-CEM) [nM]	IC50 (MV-4-11) [nM]	IC50 (MM.1S) [nM]	IC50 (CAL-62) [nM]	IC50 (MM.1R) [nM]	IC50 (THP-1) [nM]	IC50 (MDA-MB-231) [nM]	IC50 (Daudi) [nM]	IC50 (JEKO-1) [nM]	Structure (SMILES)	substrate protein remaining % (GSPT1)	substrate protein remaining % (IKZF2)	substrate protein remaining % (IKZF1)	substrate protein remaining % (CK1α)	substrate protein remaining % (Wee1)	substrate protein remaining % (IKZF3)
< 500	100 to 500	50 to 100	100 to 500	100 to 500	50 to 100	50 to 100	10 to 50	100 to 500	< 1	100 to 500	O=C1CCC(N2Cc3cc(SC4CN(Cc5ccccc5-c5ccc(Cl)cc5)C4)ccc3C2=O)C(=O)N1 (stereo not shown) [GT-03360, 3-(5-((1-((4′-chloro-[1,1′-biphenyl]-2-yl)methyl)azetidin-3-yl)thio)-1-oxoisoindolin-2-yl)piperidine-2,6-dione]	A (0%≤ substrate protein remaining % ≤80%)	A (0%≤ substrate protein remaining % ≤80%)	A (0%≤ substrate protein remaining % ≤80%)	A (0%≤ substrate protein remaining % ≤80%)	–	A (0%≤ substrate protein remaining % ≤80%)
500 to 1000	–	100 to 500	–	–	–	–	–	–	–	100 to 500	O=C1CCC(N2Cc3cc(OC4CN(Cc5ccccc5-c5ccc(Cl)cc5)C4)ccc3C2=O)C(=O)N1 (stereo not shown) [GT-03363, 3-(5-((1-((4′-chloro-[1,1′-biphenyl]-2-yl)methyl)azetidin-3-yl)oxy)-1-oxoisoindolin-2-yl)piperidine-2,6-dione]	A (0%≤ substrate protein remaining % ≤80%)	–	A (0%≤ substrate protein remaining % ≤80%)	A (0%≤ substrate protein remaining % ≤80%)	A (0%≤ substrate protein remaining % ≤80%)	A (0%≤ substrate protein remaining % ≤80%)

Further lines, the compound ahead of its results:

Structure (SMILES)	IC50 [1] [nM]	IC50 (Kasumi-1) [nM]	IC50 (CCRF-CEM) [nM]	IC50 (MV-4-11) [nM]	IC50 (MM.1S) [nM]	IC50 (CAL-62) [nM]	IC50 (MM.1R) [nM]	IC50 (THP-1) [nM]	IC50 (MDA-MB-231) [nM]	IC50 (Daudi) [nM]	IC50 (JEKO-1) [nM]	substrate protein remaining % (GSPT1)	substrate protein remaining % (IKZF2)	substrate protein remaining % (IKZF1)	substrate protein remaining % (CK1α)	substrate protein remaining % (Wee1)	substrate protein remaining % (IKZF3)
O=C1CCC(N2Cc3cc(SC4CN(C(c5ccccc5F)c5ccccc5F)C4)ccc3C2=O)C(=O)N1 (stereo not shown) [GT-06758, 3-(5-((1-(bis(2-fluorophenyl)methyl)azetidin-3-yl)thio)-1-oxoisoindolin-2-yl)piperidine-2,6-dione]	< 500	100 to 500	50 to 100	50 to 100	–	–	–	–	–	–	–	A (0%≤ substrate protein remaining % ≤80%)	A (0%≤ substrate protein remaining % ≤80%)	A (0%≤ substrate protein remaining % ≤80%)	–	–	–
O=C1CCC(N2Cc3cc(SC4CCN(Cc5ccccc5-c5ccc(Cl)cc5)CC4(F)F)ccc3C2=O)C(=O)N1 (stereo not shown) [GT-06924, 3-(5-((1-((4′-chloro-[1,1′-biphenyl]-2-yl)methyl)-3,3-difluoropiperidin-4-yl)thio)-1-oxoisoindolin-2-yl)piperidine-2,6-dione]	–	–	500 to 1000	100 to 500	–	–	–	–	–	–	–	A (0%≤ substrate protein remaining % ≤80%)	–	A (0%≤ substrate protein remaining % ≤80%)	A (0%≤ substrate protein remaining % ≤80%)	–	–
O=C1CCC(N2Cc3cc(SC4CCN(C(c5ccccc5)c5ccccc5)CC4(F)F)ccc3C2=O)C(=O)N1 (stereo not shown) [GT-06926, 3-(5-((1-benzhydryl-3,3-difluoropiperidin-4-yl)thio)-1-oxoisoindolin-2-yl)piperidine-2,6-dione]	1000 to 1900	100 to 500	50 to 100	10 to 50	–	–	–	–	–	–	–	A (0%≤ substrate protein remaining % ≤80%)	A (0%≤ substrate protein remaining % ≤80%)	A (0%≤ substrate protein remaining % ≤80%)	A (0%≤ substrate protein remaining % ≤80%)	A (0%≤ substrate protein remaining % ≤80%)	A (0%≤ substrate protein remaining % ≤80%)
O=C1CCC(N2Cc3cc(SC4CN(C(=O)c5ccccc5-c5ccc(Cl)cc5)C4)ccc3C2=O)C(=O)N1 (stereo not shown) [GT-03892, 3-(5-((1-(4′-chloro-[1,1′-biphenyl]-2-carbonyl)azetidin-3-yl)thio)-1-oxoisoindolin-2-yl)piperidine-2,6-dione]	< 500	–	10 to 50	–	–	10 to 50	–	100 to 500	–	–	–	A (0%≤ substrate protein remaining % ≤80%)	A (0%≤ substrate protein remaining % ≤80%)	A (0%≤ substrate protein remaining % ≤80%)	–	A (0%≤ substrate protein remaining % ≤80%)	A (0%≤ substrate protein remaining % ≤80%)
